Measured values from US20200181104A1, “SSAO INHIBITORS AND USES THEREOF” (METACRINE, INC., priority 2018, published 2020).
Where a name gives a salt, the structure may show the parent alone.

Biological target: T1, Recombinant Human SSAO/VAP-1/AOC3 (Homo sapiens, UniProt Q16853)
T1 construct: purchased R&D systems 3957-AO
T1 sequence (Q16853 1-763): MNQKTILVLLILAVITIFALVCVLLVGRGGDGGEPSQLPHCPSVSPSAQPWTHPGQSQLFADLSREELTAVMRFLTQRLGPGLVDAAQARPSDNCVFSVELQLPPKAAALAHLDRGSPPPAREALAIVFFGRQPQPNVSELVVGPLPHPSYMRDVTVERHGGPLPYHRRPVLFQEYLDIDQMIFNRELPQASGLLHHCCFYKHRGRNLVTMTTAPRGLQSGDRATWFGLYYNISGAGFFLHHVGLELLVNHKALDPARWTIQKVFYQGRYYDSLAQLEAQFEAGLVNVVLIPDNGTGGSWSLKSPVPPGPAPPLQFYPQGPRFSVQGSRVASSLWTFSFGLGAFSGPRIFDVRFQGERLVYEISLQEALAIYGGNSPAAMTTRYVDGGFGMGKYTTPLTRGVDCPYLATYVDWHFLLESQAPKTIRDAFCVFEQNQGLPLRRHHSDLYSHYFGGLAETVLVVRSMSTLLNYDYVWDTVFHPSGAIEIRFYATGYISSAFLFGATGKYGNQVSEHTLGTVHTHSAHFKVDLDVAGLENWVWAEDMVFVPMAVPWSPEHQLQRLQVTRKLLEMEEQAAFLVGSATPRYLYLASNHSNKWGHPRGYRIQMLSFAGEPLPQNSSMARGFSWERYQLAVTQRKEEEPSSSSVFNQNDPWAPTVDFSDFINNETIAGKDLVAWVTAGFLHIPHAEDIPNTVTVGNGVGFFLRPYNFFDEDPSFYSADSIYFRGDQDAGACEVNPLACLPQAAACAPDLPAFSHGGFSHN
Assay: Human Semicarbazide-Sensitive Amine Oxidase (SSAO) Assay
Format: biochemical
Conditions: recombinant enzyme, 30 minutes preincubation at 37° C., benzylamine substrate, Amplex Ultra Red/HRP fluorescence
Procedure, shortened: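 IC50 from kinetic Amplex Ultra Red/HRP fluorescence (ex 544, em 590 nm, 30-120 min) after benzylamine addition. Beforehand, 6-10 compound dilutions were preincubated 30 min at 37 °C with recombinant human SSAO in 50 mM HEPES (enzyme working concentration 2.5 μg/ml).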

IC50, ≤ 10 nM:
COCCOCCOCCOCCNC(=O)C12CCC(c3ccc(OC/C(=C/F)CN)cc3)(CC1)CC2 [Compound 2.51, (E)-4-(4-((2-(aminomethyl)-3-fluoroallyl)oxy)phenyl)-N-(2,5,8,11-tetraoxatridecan-13-yl)bicyclo[2.2.2]octane-1-carboxamide]
NC/C(=C\F)COc1ccc(C23CCC(C(=O)NC4CC5CCC(C4)O5)(CC2)CC3)cc1 (stereo not drawn) [Compound 2.84, (E)-4-(4-((2-(aminomethyl)-3-fluoroallyl)oxy)phenyl)-N-(8-oxabicyclo[3.2.1]octan-3-yl)bicyclo[2.2.2]octane-1-carboxamide]
NC/C(=C\F)COc1ccc(C23CCC(NC(=O)C4CCOCC4)(CC2)CC3)cc1 [Compound 7, (E)-N-(4-(4-((2-(Aminomethyl)-3-fluoroallyl)oxy)phenyl)bicyclo[2.2.2]octan-1-yl)tetrahydro-2H-pyran-4-carboxamide Hydrochloride]
NC/C(=C\F)COc1ccc(C23CCC(C(=O)NCC4(CO)CCOCC4)(CC2)CC3)cc1 [Compound 2.63, (E)-4-(4-((2-(aminomethyl)-3-fluoroallyl)oxy)phenyl)-N-((4-(hydroxymethyl)tetrahydro-2H-pyran-4-yl)methyl)bicyclo[2.2.2]octane-1-carboxamide]
COC1CN(C(=O)C23CCC(c4ccc(OC/C(=C/F)CN)cc4)(CC2)CC3)C1 [Compound 2.39, (E)-(4-(4-((2-(aminomethyl)-3-fluoroallyl)oxy)phenyl)bicyclo [2.2.2]octan-1-yl)(3-methoxyazetidin-1-yl)methanone]
CO[C@@H]1CCN(C(=O)C23CCC(c4ccc(OC/C(=C/F)CN)cc4)(CC2)CC3)C1 [Compound 2.133, (R,E)-(4-(4-((2-(aminomethyl)-3-fluoroallyl)oxy)phenyl)bicyclo[2.2.2]octan-1-yl)(3-methoxypyrrolidin-1-yl)methanone]
CO[C@H]1CCN(C(=O)C23CCC(c4ccc(OC/C(=C/F)CN)cc4)(CC2)CC3)C1 [Compound 2.121, (S,E)-(4-(4-((2-(aminomethyl)-3-fluoroallyl)oxy)phenyl)bicyclo [2.2.2]octan-1-yl)(3-methoxypyrrolidin-1-yl)methanone]
NC/C(=C\F)COc1ccc(C23CCC(C(=O)NCc4ccncn4)(CC2)CC3)cc1 [Compound 2.155, (E)-4-(4-((2-(aminomethyl)-3-fluoroallyl)oxy)phenyl)-N-(pyrimidin-4-ylmethyl)bicyclo[2.2.2]octane-1-carboxamide]
NC/C(=C\F)COc1ccc(C23CCC(C(=O)N4CC5(CCOCC5)C4)(CC2)CC3)cc1 [Compound 2.82, (E)-(4-(4-((2-(Aminomethyl)-3-fluoroallyl)oxy)phenyl)bicyclo[2.2.2]octan-1-yl)(7-oxa-2-azaspiro[3.5]nonan-2-yl)methanone Hydrochloride]
